≈ marks a conversion by molar mass, not a printed value. Peptide text beside a SMILES is read from it.

For one assay, the system named is M. furfur ATCC 14521.
Assay: not given
The conditions noted are these: 5 μM peptide, after 15 min of treatment, 30° C., 10^6 cells/ml, CFU vs no-peptide control. On the procedure:
FIG. 1. Killing kinetics of PF-S028 L and D versions against M. furfur were determined using standard time-kill methods previously detailed (Eckert et al. (2006) Antimicrob Agents Chemother., 50: 1480-1488). Briefly, a log phase culture of M. furfur ATCC 14521 was diluted to 10^6 cells/ml in ATCC medium 1072. To the reaction tubes 5 μM of either PF-S028 L or PF-S028 D were added. A reaction tube to which 4 μl of 50% methanol served as the negative control. Reaction tubes were stored at 30° C. and at indicated intervals an aliquot was removed from the reaction tube and placed in a recovery tube where peptide was removed by dilution. An aliquot from the recovery tube was plated on ATCC medium 1072 agar plates and incubated at 30° C. until visible colonies formed. Colony forming units were calculated for the negative control (no peptide), PF-S028 L, and PF-S028 D treated cultures.
In some cases killing kinetic experiments were then conducted. Killing kinetics of PF-S028 L and D versions against M. furfur were determined as described in Eckert et al. (2006) Antimicrob Agents Chemother., 50: 1480-1488. Briefly, a log phase culture of M. furfur ATCC 14521 was diluted to 10^6 cells/ml in ATCC medium 1072. To the reaction tubes 5 μM of either PF-S028 L or PF-S028 D were added. […] Colony forming units were calculated for the negative control (no peptide), PF-S028 L, and PF-S028 D treated cultures.
For `CC[C@H](C)[C@H](NC(=O)[C@@H](NC(=O)[C@H](CO)NC(=O)CN)C(C)C)C(=O)N[C@@H](CCCCN)C(=O)N[C@@H](CCCCN)C(=O)N[C@@H](CCCNC(=N)N)C(=O)N[C@@H](CCCNC(=N)N)C(=O)N[C@@H](CCCCN)C(=O)N[C@@H](CCCNC(=N)N)C(=O)N[C@@H](CCSC)C(=O)N[C@@H](CO)C(=O)N[C@@H](CCCCN)C(=O)N[C@@H](CCCCN)C(=O)N[C@@H](CCCCN)C(=O)N[C@@H](Cc1c[nH]cn1)C(=O)N[C@@H](CCCNC(=N)N)C(=O)N[C@@H](CCCCN)C(=O)N[C@@H](CCSC)C(=O)N[C@@H](CC(C)C)C(=O)N[C@@H](CCCNC(=N)N)C(=O)N[C@@H](CCCNC(=N)N)C(=O)N[C@H](C(=O)N[C@@H](CCCNC(=N)N)C(=O)N[C@H](C(=O)N[C@@H](CCC(N)=O)C(=O)N[C@@H](CCCNC(=N)N)C(=O)N[C@@H](CCCNC(=N)N)C(=O)N[C@@H](CCCCN)C(=O)N[C@@H](CC(C)C)C(=O)NCC(=O)N[C@@H](CCCCN)C(=O)O)C(C)C)[C@@H](C)O` [PF-S028 L], the M. furfur killed amounted to 39%. Same read-out and setting: in the case of `CC[C@@H](C)[C@@H](NC(=O)[C@H](NC(=O)[C@@H](CO)NC(=O)CN)C(C)C)C(=O)N[C@H](CCCCN)C(=O)N[C@H](CCCCN)C(=O)N[C@H](CCCNC(=N)N)C(=O)N[C@H](CCCNC(=N)N)C(=O)N[C@H](CCCCN)C(=O)N[C@H](CCCNC(=N)N)C(=O)N[C@H](CCSC)C(=O)N[C@H](CO)C(=O)N[C@H](CCCCN)C(=O)N[C@H](CCCCN)C(=O)N[C@H](CCCCN)C(=O)N[C@H](Cc1c[nH]cn1)C(=O)N[C@H](CCCNC(=N)N)C(=O)N[C@H](CCCCN)C(=O)N[C@H](CCSC)C(=O)N[C@H](CC(C)C)C(=O)N[C@H](CCCNC(=N)N)C(=O)N[C@H](CCCNC(=N)N)C(=O)N[C@@H](C(=O)N[C@H](CCCNC(=N)N)C(=O)N[C@@H](C(=O)N[C@H](CCC(N)=O)C(=O)N[C@H](CCCNC(=N)N)C(=O)N[C@H](CCCNC(=N)N)C(=O)N[C@H](CCCCN)C(=O)N[C@H](CC(C)C)C(=O)NCC(=O)N[C@H](CCCCN)C(=O)O)C(C)C)[C@H](C)O` [PF-S028 D] it was “over 99%”.

The next assay relates to Candida albicans. In words: Peptide binding to Candida albicans. The conditions noted are these: tested at 3.13, 6.25, 12.5 and 25.0 μM in 1× PBS or 20 mM HEPES, 150 mM NaCl, 1 mM MgCl2, 0.1% CTAB. How it is done: The peptides in Table 6 were tested for binding efficiency at 3.13, 6.25, 12.5 and 25.0 μM concentrations in 1× phosphate-buffered saline or 20 mM HEPES (4-(2-hydroxyethyl)-1-piperazineethanesulfonic acid), 150 mM sodium chloride, 1 mM magnesium chloride and 0.1% CTAB.
On to “RFFNFEIKKSTKVDYVFAHVDLSDV (Antimicrobial peptide and/or targeting peptide) [PF-051]”, for which the “Target(s): form of Candida albicans bound” value is “hyphae”. Same read-out and setting: in the case of “VYRHLRFIDGKLVEIRLERK (Antimicrobial peptide and/or targeting peptide) [1T-36]” it was “hyphae”. On the same count and under the same terms, in the case of “GGTKEIVYQRG (Antimicrobial peptide and/or targeting peptide) [1T-68]” it was “yeast cells”; in that of “EILNNNQVIKELTMKYKTQFESNLGGWTARARR (Antimicrobial peptide and/or targeting peptide) [PF-580]”, “hyphae”. On the same count and under the same terms, the same measure for “HSSHL (Antimicrobial peptide and/or targeting peptide) [PF-060]”: “hyphae”. Turning to “GVGIGFIMMGVVGYAVKLVHIPIRYLIV (Antimicrobial peptide and/or targeting peptide) [PF-770]”, the “Target(s): form of Candida albicans bound” value is on record as “hyphae”.

For the compound “VVRRFQGM (Antimicrobial peptide and/or targeting peptide) [PF-141]”, the “Target(s): form of Candida albicans bound” value is “hyphae”. On the same count and under the same terms, the same measure for “RLTSNQFLTRITPFVFAQH (Antimicrobial peptide and/or targeting peptide) [PF-176]”: “yeast cells”; for “LVRLA (Antimicrobial peptide and/or targeting peptide) [PF-636]”: “hyphae”. Turning to “KLRSASKKSLQEKSCGIMPEKPAG (Antimicrobial peptide and/or targeting peptide) [PF-206]”, the “Target(s): form of Candida albicans bound” value is on record as “hyphae”. The same measure, in the same setting: the same measure for “NILFGIIGFVVAMTAAVIVTAISIAK (Antimicrobial peptide and/or targeting peptide) [PF-543]”: “hyphae”; for `CC[C@H](C)[C@H](NC(=O)[C@H](CC(N)=O)NC(=O)[C@@H](NC(=O)[C@H](Cc1ccccc1)NC(=O)[C@H](CCC(=O)O)NC(=O)CNC(=O)[C@H](CCC(N)=O)NC(=O)[C@H](Cc1ccccc1)NC(=O)[C@@H](N)CCCCN)[C@@H](C)O)C(=O)NCC(=O)N[C@@H](CCC(N)=O)C(=O)N[C@@H](CO)C(=O)N[C@@H](Cc1ccc(O)cc1)C(=O)N[C@H](C(=O)N[C@H](C(=O)N[C@@H](CO)C(=O)N[C@@H](C)C(=O)N[C@@H](CO)C(=O)N[C@@H](Cc1c[nH]cn1)C(=O)N[C@@H](CCSC)C(=O)N[C@@H](CO)C(=O)N[C@H](C(=O)N[C@@H](CO)C(=O)N[C@@H](CC(C)C)C(=O)N[C@@H](CC(N)=O)C(=O)N[C@H](C(=O)NCC(=O)N[C@@H](CCCCN)C(=O)O)[C@@H](C)O)[C@@H](C)O)C(C)C)[C@@H](C)CC` [PF-583] (H-KFQGEFTNIGQSYIVSASHMSTSLNTGK-OH; N-terminus and C-terminus assumed): “hyphae”; for “HARAAVGVAELPRGAAVEVELIAAVRP (Antimicrobial peptide and/or targeting peptide) [1T-65]”: “hyphae”. The same measure, in the same setting: in the case of `CC[C@H](C)[C@H](NC(=O)[C@H](C)NC(=O)[C@@H]1CCCN1C(=O)[C@H](Cc1ccccc1)NC(=O)[C@@H]1CCCN1C(=O)[C@H](CC(C)C)NC(=O)[C@@H](N)C(C)C)C(=O)N1CCC[C@H]1C(=O)N[C@@H](CC(C)C)C(=O)N[C@@H](CO)C(=O)N[C@@H](CCCNC(=N)N)C(=O)N[C@@H](CCCNC(=N)N)C(=O)N[C@@H](CCCNC(=N)N)C(=O)N[C@@H](C)C(=O)N[C@@H](CS)C(=O)N[C@H](C(=O)N[C@@H](C)C(=O)N[C@@H](C)C(=O)N1CCC[C@H]1C(=O)N[C@@H](CCCNC(=N)N)C(=O)N1CCC[C@H]1C(=O)N[C@@H](CCCNC(=N)N)C(=O)N[C@@H](CO)C(=O)N[C@@H](CCCNC(=N)N)C(=O)N[C@@H](CCC(N)=O)C(=O)N[C@@H](CCCNC(=N)N)C(=O)N[C@@H](C)C(=O)N[C@@H](CO)C(=O)O)C(C)C` [PF-168] (H-VLPFPAIPLSRRRACVAAPRPRSRQRAS-OH; N-terminus and C-terminus assumed) it was “yeast cells”. Still for that read-out and setting: in the case of “AIEGVIKKGACFKLLRHEMF (Antimicrobial peptide and/or targeting peptide) [PF-167]” it was “yeast cells”. “SKFELVNYASGCSCGADCKCASETECKCASKK (Antimicrobial peptide and/or targeting peptide) [PF-761]”: the “Target(s): form of Candida albicans bound” value is on record as “hyphae”. Still for that read-out and setting: the same measure for “NRQAQGERAHGEQQG (Antimicrobial peptide and/or targeting peptide) [1T-70]”: “yeast cells”; for “RLARGRPTNLCGRRG (Antimicrobial peptide and/or targeting peptide) [PF-170]”: “yeast cells”; for “EVYSSPTNNVAITVQNN (Antimicrobial peptide and/or targeting peptide) [PF-178]”: “hyphae”. On the same count and under the same terms, the same measure for “MIHLTKQNTMEALHFIKQFYDMFFILNFNV (Antimicrobial peptide and/or targeting peptide) [PF-040]”: “hyphae”. The same measure, in the same setting: the same measure for “MPKARPVNHNKKKSKITIKSNFTLFYMFNP (Antimicrobial peptide and/or targeting peptide) [PF-634]”: “hyphae”; for “DLRKAK (Antimicrobial peptide and/or targeting peptide) [PF-024]”: “hyphae”.

For the next assay, the system named is B. subtilis.
Assay: not given
In kind it is cell-based, Bacillus subtilis.
Conditions: not given
On the procedure: (§1) In certain embodiments the MIC assays are performed as described herein in the Examples. For each organism, the media and growth conditions utilized is detailed in Table 8.
(§2) In certain embodiments the MIC assays are performed as follows: For each organism, the media and growth conditions utilized is detailed in Table 8.
`CC(C)[C@H](NC(=O)[C@H](CCCCN)NC(=O)[C@H](Cc1c[nH]c2ccccc12)NC(=O)CNC(=O)[C@@H](NC(=O)[C@H](CC(=O)O)NC(=O)[C@H](CO)NC(=O)[C@H](Cc1c[nH]cn1)NC(=O)CNC(=O)[C@@H]1CCCN1C(=O)[C@@H](NC(=O)[C@H](CCCNC(=N)N)NC(=O)[C@H](CO)NC(=O)[C@@H](N)Cc1c[nH]c2ccccc12)C(C)C)[C@@H](C)O)C(=O)N[C@@H](Cc1c[nH]c2ccccc12)C(=O)N[C@@H](Cc1c[nH]cn1)C(=O)N[C@@H](CCCNC(=N)N)C(=O)N[C@@H](Cc1c[nH]c2ccccc12)C(=O)O` [PF-547] (H-WSRVPGHSDTGWKVWHRW-OH; N-terminus and C-terminus assumed) displayed an MIC of 25 µM (≈ 56.9 µg/mL).

The subject of another assay is T. rubrum.
Assay: not given
The assay is classed as cell-based, Trichophyton rubrum.
Conditions: not given
On the procedure:
as §1, §2
Compound `CC(C)[C@H](NC(=O)[C@H](CCCCN)NC(=O)[C@H](Cc1c[nH]c2ccccc12)NC(=O)CNC(=O)[C@@H](NC(=O)[C@H](CC(=O)O)NC(=O)[C@H](CO)NC(=O)[C@H](Cc1c[nH]cn1)NC(=O)CNC(=O)[C@@H]1CCCN1C(=O)[C@@H](NC(=O)[C@H](CCCNC(=N)N)NC(=O)[C@H](CO)NC(=O)[C@@H](N)Cc1c[nH]c2ccccc12)C(C)C)[C@@H](C)O)C(=O)N[C@@H](Cc1c[nH]c2ccccc12)C(=O)N[C@@H](Cc1c[nH]cn1)C(=O)N[C@@H](CCCNC(=N)N)C(=O)N[C@@H](Cc1c[nH]c2ccccc12)C(=O)O` [PF-547] (H-WSRVPGHSDTGWKVWHRW-OH; N-terminus and C-terminus assumed) gave an MIC of 25 µM (≈ 56.9 µg/mL).

The record behind these values is patent US8303962B2, “Antibacterial and antifungal peptides” (C3 Jian, Inc., priority 2009, dated 2012).
